Source: patent US6583132B1, “Oxidant scavengers” (Duke University, priority 1993, dated 2003)
Like-named read-outs stand apart in the source and are kept apart here.

Key:
[1] = Peroxynitrite-induced oxidation of dihydrorhodamine 123; format: biochemical; conditions: peroxynitrite 5 μM; 10 μM dihydrorhodamine 123; 10 min, 22° C.; read-out: concentration giving 50% inhibition of oxidation of dihydrorhodamine 123 to rhodamine 123
Method: Measurement of peroxynitrite-induced oxidation of dihydrorhodamine 123: The peroxynitrite-dependent oxidation of dihydrorhodamine 123 to rhodamine 123, was measured based on the principles of the method described by Kooy et al, Free Radical Biol. Med. 16:149 (1994). Briefly, peroxynitrite at 5 μM was added into phosphate-buffered saline containing 10 μM dihydrorhodamine 123, in the absence of presence of MnTBAP (3-100 μM). After a 10 min incubation at 22° C., the fluorescence of rhodamine 123 was measured using a Perkin-Elmer fluorimeter (Model LS50B: Perkin-Elmer, Norwalk, Conn.) at an excitation wavelength of 500 mn, emission wavelength of 536 nm (slit widths 2.5 and 3.0 nm, respectively).

[2] = system: descending thoracic aorta rings; assay: NO-induced vascular relaxations of aortic rings; parameters: species or system New Zealand white rabbits; conditions: 100 μM; NO 75-300 nM
Method: Measurement of NO-induced vascular relaxations: New Zealand white rabbits weighing 3-4 kg were anesthetized with pentobarbital (30 mg/kg). The descending thoracic aorta was isolated, removed, cleaned and placed in Krebs buffer (pH 7.5). Vessels were cut into 5 mm rings and hung on stirrups connected to force transducers. Rings were suspended in 20 ml jacketed baths which were kept at 37° C. and bubbled with 95% O2 and 5% CO2. Rings were equilibrated with 2 g resting tension for 1 h before use and contracted with phenylephrine. Saturated NO solution was prepared by bubbling compressed NO gas through a NaOH trap and then into anaerobic deionized water. Aliquots of the nitric oxide solutions (final concentration: 75-300 nM) were added to the rings (in the presence or absence of 100 μM MnTBAP) and relaxant responses were recorded.

[3] = biological target: T1, xanthine oxidase (Bos taurus, UniProt P80457); assay: Inhibition of xanthine oxidase; format: biochemical; conditions: for Ki: pH 10, 25° C., 1 nM xanthine oxidase
T1 construct: purchased Boehringer Mannheim
T1 sequence (P80457 whole entry): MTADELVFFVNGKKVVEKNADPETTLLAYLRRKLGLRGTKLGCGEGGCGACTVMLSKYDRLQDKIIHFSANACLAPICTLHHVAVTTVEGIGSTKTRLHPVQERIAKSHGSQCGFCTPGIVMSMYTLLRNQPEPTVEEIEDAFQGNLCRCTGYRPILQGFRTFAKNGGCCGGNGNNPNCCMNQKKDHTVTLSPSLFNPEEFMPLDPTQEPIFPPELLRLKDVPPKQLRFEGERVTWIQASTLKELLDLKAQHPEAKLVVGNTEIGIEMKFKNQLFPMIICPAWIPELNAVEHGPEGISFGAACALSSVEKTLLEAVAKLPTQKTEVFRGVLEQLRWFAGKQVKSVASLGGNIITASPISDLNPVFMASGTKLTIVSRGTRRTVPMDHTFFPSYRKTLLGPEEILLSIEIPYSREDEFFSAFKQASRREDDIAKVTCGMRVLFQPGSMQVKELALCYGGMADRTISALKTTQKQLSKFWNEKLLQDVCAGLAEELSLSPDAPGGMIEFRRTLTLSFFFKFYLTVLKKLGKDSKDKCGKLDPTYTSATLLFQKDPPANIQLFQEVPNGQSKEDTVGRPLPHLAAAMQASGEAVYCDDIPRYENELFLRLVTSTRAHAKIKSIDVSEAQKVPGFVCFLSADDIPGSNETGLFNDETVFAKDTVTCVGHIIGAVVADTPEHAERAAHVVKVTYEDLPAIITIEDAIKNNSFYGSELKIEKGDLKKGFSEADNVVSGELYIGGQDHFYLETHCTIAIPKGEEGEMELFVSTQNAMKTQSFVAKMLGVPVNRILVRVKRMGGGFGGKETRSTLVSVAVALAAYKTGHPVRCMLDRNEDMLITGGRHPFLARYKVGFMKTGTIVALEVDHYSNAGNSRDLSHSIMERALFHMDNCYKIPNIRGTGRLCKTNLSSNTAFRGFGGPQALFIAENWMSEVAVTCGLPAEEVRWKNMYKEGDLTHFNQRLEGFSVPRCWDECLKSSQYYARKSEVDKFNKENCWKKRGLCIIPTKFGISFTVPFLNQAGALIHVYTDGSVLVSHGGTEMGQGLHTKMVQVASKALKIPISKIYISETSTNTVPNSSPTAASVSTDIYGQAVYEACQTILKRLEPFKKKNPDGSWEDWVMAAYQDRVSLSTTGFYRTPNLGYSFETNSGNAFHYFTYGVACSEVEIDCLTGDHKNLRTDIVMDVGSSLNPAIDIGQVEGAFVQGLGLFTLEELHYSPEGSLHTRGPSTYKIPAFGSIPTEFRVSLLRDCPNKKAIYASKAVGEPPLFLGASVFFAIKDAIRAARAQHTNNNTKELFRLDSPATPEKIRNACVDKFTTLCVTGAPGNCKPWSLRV
Method: In a first study, assays were performed in a 1 ml quartz cuvette containing 50 mM carbonate buffer, pH 10, 0.1 mM EDTA, 1 nM xanthine oxidase (Boehringer Mannheim) at 25° C. Xanthine oxidase activity was measured spectrophotometrically by following the […] over time at 295 nm. Four concentrations of xanthine (25, 50, 250, 500 μM) and 2 concentrations of MnTBAP (5, 10 μM) were used. Two inhibition constants were then derived from the curve's intercepts (Kii=5.5 μM) and slopes (Kis=15 μM).

[4] = system: Cortical cells; assay: Cell death of cortical cells by EthD-1 staining; format: cell-based, rat; conditions: concentration-response curves
Method: Tissue culture: Mixed neuronal and glial cultures were prepared from embryonic day-18 rat cerebral cortices (Sprague-Dawley, Zivic Miller). Briefly, the cerebral cortices were dissected and enzymatically dissociated by incubation in Ca^++-, Mg^++-free Hank's balanced salt solution (HBSS) supplemented with 10 mM HEPES and 0.25% trypsin for 20 min. at 37° C. The tissue was rinsed and dispersed into single cell suspension by gentle passage through a fire polished Pasteur pipette. The cell suspension was centrifuged and resuspended in Minimum Essential Media (MEM), containing Earle's salts supplemented with 3 g/L glucose, 5% horse serum and 5% fetal bovine serum (growth media). […]
Neurotoxicity studies: Neurotoxicity was determined by the measurement of LDH released in the supernatant media as previously described (Patel et al, Toxicol. Appl. Pharmacol. 115:124 (1991) and Neurotoxicology 14:35 (1992)). LDH was measured by the method of Vassault, Lactate dehydrogenase. […] Briefly, the cells were washed with HBSS, loaded with 20 μM EthD-1 for 30 min,. rinsed and viewed through fluorescence optics. The number of dead cells labeled with EthD-1 were counted in 4-6 randomly selected fields, the numbers averaged to give an estimate of cell death and the experiment was repeated 3 times.

Mn(III) tetrakis (4-benzoic acid)porphyrin [MnTBAP]
IC50 [1]: 30 µM | relaxations in vascular rings in response to authentic NO [2]: did not inhibit | manner of inhibition of xanthine oxidase [3]: non-competitive | Ki ([3]; read-out: Kii (inhibition constant from intercepts)): 5.5 µM | Ki ([3]; read-out: Kis (inhibition constant from slopes)): 15 µM | neuroprotective effects against PQ^++, NMDA and KA toxicities [4]: markedly increased neuroprotective effects in comparison to ZnTBAP
